Experimental data from patent US20040005256A1, “Crystallization system utilizing atomization” (priority 2002, published 2004).

Test: maximum concentration of D,L-Threonine dissolved in water
Type: physicochemical
Details: solid dissolved in water (solvent) before atomization into acetone anti-solvent
Experimental: For example, the material-containing solution may be composed of a solvent, such as water, and a material to be crystallized, such as D,L-Threonine, dissolved in the water. The anti-solvent could be acetone. The solid D,L-Threonine is dissolved at its maximum concentration ratio (160 g/L) in water. The D,L-Threonine solution is atomized and introduced into the acetone. The atomized solution and the acetone are then mixed to produce the crystallized product.

- maximum concentration ratio in water: 160 g/L
SMILES: C[C@@H](O)[C@H](N)C(=O)O (racemic) [D,L-Threonine]
